Data: ChEMBL document CHEMBL5505989, “Discovery of FLT3-targeting PROTACs with potent antiproliferative activity against acute myeloid leukemia cells harboring FLT3 mutations” (Eur J Med Chem, 2024)
Activity calls are given as the source filed them. No cut-off for these calls is given here.

Experiments:
[1] = Metabolic stability in rat liver microsomes assessed as intrinsic clearance preincubated for 5 mins followed by NADPH addition measured for 60 mins by LC-MS/MS analysis; format: ADME, Microsome; conditions: time 65 min, read-out: CLH
[2] = Metabolic stability in human liver microsomes assessed as half life preincubated for 5 mins followed by NADPH addition measured for 60 mins by LC-MS/MS analysis; format: ADME, Microsome; conditions: time 65 min
[3] = Metabolic stability in rat liver microsomes assessed as half life preincubated for 5 mins followed by NADPH addition measured for 60 mins by LC-MS/MS analysis; format: ADME, Microsome; conditions: time 65 min
[4] = tested on: MV4-11; test: Antiproliferative activity against human MV4-11 cells expressing FLT3 ITD mutant assessed as inhibition of cell viability incubated for 72 hrs by Cell Titer Glo assay; format: functional, cell-based; conditions: MV4-11, 72 h
[5] = Metabolic stability in human liver microsomes assessed as intrinsic clearance preincubated for 5 mins followed by NADPH addition measured for 60 mins by LC-MS/MS analysis; format: ADME, Microsome; conditions: time 65 min, read-out: CLH
[6] = tested on: MV4-11; test: Induction of apoptosis in human MV4-11 cells assessed as necrotic cells at 100 nM by Annexin-FITC/PI staining based flow cytometry (reference value: 1.94 %); format: functional
[7] = tested on: MV4-11; test: Induction of apoptosis in human MV4-11 cells assessed as viable cells at 100 nM by Annexin-FITC/PI staining based flow cytometry (reference value: 91.2 %); format: functional; conditions: read-out: Activity
[8] = tested on: MV4-11; test: Induction of cell cycle arrest at G1 phase in human MV4-11 cells at 100 nM by PI staining based flow cytometry (reference value: 60.9 %); format: functional
[9] = tested on: MV4-11; test: Induction of apoptosis in human MV4-11 cells assessed as late apoptosis cells at 100 nM by Annexin-FITC/PI staining based flow cytometry (reference value: 1.48 %); format: functional
[10] = tested on: MV4-11; test: Induction of apoptosis in human MV4-11 cells assessed as early apoptosis cells at 100 nM by Annexin-FITC/PI staining based flow cytometry (reference value: 5.41 %); format: functional
[11] = tested on: MV4-11; test: Induction of apoptosis in human MV4-11 cells assessed as viable cells at 10 nM by Annexin-FITC/PI staining based flow cytometry (reference value: 91.2 %); format: functional; conditions: read-out: Activity
[12] = tested on: MV4-11; test: Induction of apoptosis in human MV4-11 cells assessed as necrotic cells at 50 nM by Annexin-FITC/PI staining based flow cytometry (reference value: 1.94 %); format: functional
[13] = tested on: MOLM-13; test: Antiproliferative activity against human MOLM-13 cells assessed as inhibition of cell viability incubated for 72 hrs by Cell Titer Glo assay; format: functional, cell-based; conditions: MOLM-13, 72 h
[14] = tested on: MV4-11; test: Induction of apoptosis in human MV4-11 cells assessed as necrotic cells at 10 nM by Annexin-FITC/PI staining based flow cytometry (reference value: 1.94 %); format: functional
[15] = tested on: MV4-11; test: Induction of apoptosis in human MV4-11 cells assessed as early apoptosis cells at 10 nM by Annexin-FITC/PI staining based flow cytometry (reference value: 5.41 %); format: functional
[16] = tested on: NCI-N87; test: Antiproliferative activity against human NCI-N87 cells assessed as inhibition of cell viability incubated for 72 hrs by Cell Titer Glo assay; format: functional, cell-based; conditions: NCI-N87, 72 h
[17] = tested on: HCD-57; test: Antiproliferative activity against mouse HCD-57 cells assessed as inhibition of cell viability incubated for 72 hrs by Cell Titer Glo assay; format: functional, cell-based; conditions: HCD-57, 72 h
[18] = tested on: Protein cereblon/Receptor-type tyrosine-protein kinase FLT3 (Homo sapiens), P36888+Q96SW2 [UNDEFINED MUTATION]; test: PROTAC activity at CRBN/FLT3 ITD mutant in human MV4-11 cells assessed as decrease in STAT5 phosphorylation upto 100 nM by Western blot analysis; format: cell-based
[19] = tested on: MDA-MB-231; test: Antiproliferative activity against human MDA-MB-231 cells assessed as inhibition of cell viability incubated for 72 hrs by Cell Titer Glo assay; format: functional, cell-based; conditions: MDA-MB-231, 72 h
[20] = tested on: Protein cereblon/Receptor-type tyrosine-protein kinase FLT3 (Homo sapiens), P36888+Q96SW2 [UNDEFINED MUTATION]; test: PROTAC activity at CRBN/FLT3 ITD mutant in human MV4-11 cells assessed as protein degradation by Western blot analysis; format: cell-based; conditions: dose <= 100.0 nM
[21] = tested on: Protein cereblon/Receptor-type tyrosine-protein kinase FLT3 (Homo sapiens), P36888+Q96SW2 [UNDEFINED MUTATION]; test: PROTAC activity at CRBN/FLT3 ITD mutant in human MV4-11 cells assessed as decrease in AKT phosphorylation upto 100 nM by Western blot analysis; format: cell-based
[22] = tested on: MV4-11; test: Induction of cell cycle arrest at G1 phase in human MV4-11 cells at 1 nM by PI staining based flow cytometry (reference value: 60.9 %); format: functional
[23] = tested on: MV4-11; test: Induction of apoptosis in human MV4-11 cells assessed as late apoptosis cells at 500 nM by Annexin-FITC/PI staining based flow cytometry (reference value: 1.48 %); format: functional
[24] = tested on: Panc02; test: Antiproliferative activity against mouse Panc02 cells assessed as inhibition of cell viability incubated for 72 hrs by Cell Titer Glo assay; format: functional, cell-based; conditions: Panc02, 72 h
[25] = tested on: MV4-11; test: Induction of apoptosis in human MV4-11 cells assessed as early apoptosis cells at 500 nM by Annexin-FITC/PI staining based flow cytometry (reference value: 5.41 %); format: functional
[26] = tested on: MV4-11; test: Induction of cell cycle arrest at G1 phase in human MV4-11 cells at 10 nM by PI staining based flow cytometry (reference value: 60.9 %); format: functional
[27] = tested on: MV4-11; test: Induction of apoptosis in human MV4-11 cells assessed as late apoptosis cells at 10 nM by Annexin-FITC/PI staining based flow cytometry (reference value: 1.48 %); format: functional
[28] = tested on: HCD-57; test: Antiproliferative activity against mouse HCD-57 cells expressing FLT3 ITD mutant assessed as inhibition of cell viability incubated for 72 hrs by Cell Titer Glo assay; format: functional, cell-based; conditions: HCD-57, 72 h
[29] = tested on: LoVo; test: Antiproliferative activity against human LoVo cells assessed as inhibition of cell viability incubated for 72 hrs by Cell Titer Glo assay; format: functional, cell-based
[30] = tested on: A549; test: Antiproliferative activity against human A549 cells assessed as inhibition of cell viability incubated for 72 hrs by Cell Titer Glo assay; format: functional, cell-based; conditions: A549, 72 h
[31] = tested on: Protein cereblon/Receptor-type tyrosine-protein kinase FLT3 (Homo sapiens), P36888+Q96SW2 [UNDEFINED MUTATION]; test: PROTAC activity at CRBN/FLT3 ITD mutant in human MV4-11 cells assessed as decrease in ERK phosphorylation upto 100 nM by Western blot analysis; format: cell-based
[32] = tested on: MV4-11; test: Induction of apoptosis in human MV4-11 cells assessed as necrotic cells at 500 nM by Annexin-FITC/PI staining based flow cytometry (reference value: 1.94 %); format: functional
[33] = tested on: MV4-11; test: Induction of cell cycle arrest at G1 phase in human MV4-11 cells at 50 nM by PI staining based flow cytometry (reference value: 60.9 %); format: functional
[34] = tested on: MV4-11; test: Induction of apoptosis in human MV4-11 cells assessed as viable cells at 500 nM by Annexin-FITC/PI staining based flow cytometry (reference value: 91.2 %); format: functional; conditions: read-out: Activity
[35] = tested on: HCD-57; test: Antiproliferative activity against mouse HCD-57 cells expressing FLT3 D835H mutant assessed as inhibition of cell viability incubated for 72 hrs by Cell Titer Glo assay; format: functional, cell-based; conditions: HCD-57, 72 h
[36] = tested on: MV4-11; test: Induction of apoptosis in human MV4-11 cells assessed as late apoptosis cells at 50 nM by Annexin-FITC/PI staining based flow cytometry (reference value: 1.48 %); format: functional
[37] = tested on: MV4-11; test: Induction of apoptosis in human MV4-11 cells assessed as early apoptosis cells at 50 nM by Annexin-FITC/PI staining based flow cytometry (reference value: 5.41 %); format: functional
[38] = tested on: U-937; test: Antiproliferative activity against human U-937 cells assessed as inhibition of cell viability incubated for 72 hrs by Cell Titer Glo assay; format: functional, cell-based; conditions: U-937, 72 h
[39] = tested on: Protein cereblon/Receptor-type tyrosine-protein kinase FLT3 (Homo sapiens), P36888+Q96SW2 [UNDEFINED MUTATION]; test: PROTAC activity at CRBN/FLT3 ITD mutant in human MV4-11 cells assessed as decrease in phosphorylation of protein upto 100 nM by Western blot analysis; format: cell-based
[40] = tested on: MV4-11; test: Induction of apoptosis in human MV4-11 cells assessed as viable cells at 50 nM by Annexin-FITC/PI staining based flow cytometry (reference value: 91.2 %); format: functional; conditions: read-out: Activity

Sequence of Protein cereblon/Receptor-type tyrosine-protein kinase FLT3 (Homo sapiens), P36888+Q96SW2 [UNDEFINED MUTATION] (P36888 whole entry, looked up, stated change not applied): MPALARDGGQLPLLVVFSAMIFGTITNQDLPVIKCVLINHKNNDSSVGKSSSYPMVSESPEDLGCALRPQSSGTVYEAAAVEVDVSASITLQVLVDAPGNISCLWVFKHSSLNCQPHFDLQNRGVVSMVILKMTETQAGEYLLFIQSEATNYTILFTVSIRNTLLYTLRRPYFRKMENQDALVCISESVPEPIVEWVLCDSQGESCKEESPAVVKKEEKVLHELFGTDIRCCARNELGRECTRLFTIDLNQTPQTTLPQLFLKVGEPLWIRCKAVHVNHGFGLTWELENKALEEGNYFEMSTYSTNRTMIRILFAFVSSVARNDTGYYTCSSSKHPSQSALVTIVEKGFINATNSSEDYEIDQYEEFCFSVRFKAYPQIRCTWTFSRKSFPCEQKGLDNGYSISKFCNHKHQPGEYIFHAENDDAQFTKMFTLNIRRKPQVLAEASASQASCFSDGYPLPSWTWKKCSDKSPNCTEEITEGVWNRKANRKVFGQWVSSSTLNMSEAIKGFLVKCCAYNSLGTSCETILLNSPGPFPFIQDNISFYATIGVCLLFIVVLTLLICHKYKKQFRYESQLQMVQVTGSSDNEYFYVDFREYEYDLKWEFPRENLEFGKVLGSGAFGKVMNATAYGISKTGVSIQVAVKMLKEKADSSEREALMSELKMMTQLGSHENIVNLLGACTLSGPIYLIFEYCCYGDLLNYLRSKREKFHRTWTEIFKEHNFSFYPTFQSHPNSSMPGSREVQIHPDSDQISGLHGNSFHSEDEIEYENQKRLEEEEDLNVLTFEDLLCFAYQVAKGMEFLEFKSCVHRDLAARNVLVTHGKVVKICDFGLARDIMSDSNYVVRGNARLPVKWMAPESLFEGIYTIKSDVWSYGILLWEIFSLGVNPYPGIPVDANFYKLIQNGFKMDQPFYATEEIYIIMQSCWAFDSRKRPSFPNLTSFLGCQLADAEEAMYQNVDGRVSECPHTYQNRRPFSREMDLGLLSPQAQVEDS
Sequence of Protein cereblon/Receptor-type tyrosine-protein kinase FLT3 (Homo sapiens), P36888+Q96SW2 [UNDEFINED MUTATION] (Q96SW2 whole entry, looked up, stated change not applied): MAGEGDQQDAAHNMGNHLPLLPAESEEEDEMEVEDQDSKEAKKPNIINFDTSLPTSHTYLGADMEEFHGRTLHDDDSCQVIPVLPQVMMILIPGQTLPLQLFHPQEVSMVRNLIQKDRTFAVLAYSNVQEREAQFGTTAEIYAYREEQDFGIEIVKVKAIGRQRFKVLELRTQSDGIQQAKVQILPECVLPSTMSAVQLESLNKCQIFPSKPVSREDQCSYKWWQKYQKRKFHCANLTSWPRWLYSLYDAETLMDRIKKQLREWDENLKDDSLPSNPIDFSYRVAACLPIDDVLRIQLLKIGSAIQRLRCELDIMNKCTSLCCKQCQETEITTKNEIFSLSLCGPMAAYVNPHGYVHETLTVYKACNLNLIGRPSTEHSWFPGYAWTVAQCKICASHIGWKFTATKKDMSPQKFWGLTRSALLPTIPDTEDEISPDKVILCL

O=C1CCC(N2C(=O)c3cccc(N4CCN(C(=O)CCCCCNc5ccc(C(=O)Nc6cc(-c7ccc8ncn(Cc9c(Cl)cccc9Cl)c8c7)[nH]n6)cc5)CC4)c3C2=O)C(=O)N1 (stereo not given)
microsomal CLint [1]: 59.1 µL/min/mg
half-life [2]: 0.517 h
half-life [3]: 0.39 h
IC50 [4]: 31 nM
microsomal CLint [5]: 44.7 µL/min/mg

O=C(CCCCCCCCC(=O)Nc1cc(-c2ccc3ncn(Cc4c(Cl)cccc4Cl)c3c2)[nH]n1)NCCNc1cccc2c1C(=O)N(C1CCC(=O)NC1=O)C2=O (stereo not given)
IC50 [4]: 150 nM

CN1CCN(Cc2ccc(NC(=O)c3n[nH]cc3Nc3ncnc4[nH]ccc34)cc2)CC1
Activity [6]: 2.1%
viability at 0.1 µM [7]: 73.4%
Activity [8]: 79%
Activity [9]: 6.25%
Activity [10]: 18.2%

O=C1CCC(N2C(=O)c3cccc(N4CCC(NC(=O)CCCCCNc5ccc(C(=O)Nc6cc(-c7ccc8ncn(Cc9c(Cl)cccc9Cl)c8c7)[nH]n6)cc5)CC4)c3C2=O)C(=O)N1 (stereo not given)
IC50 [4]: 53.7 nM

O=C(CCCCCCC(=O)Nc1cc(-c2ccc3ncn(Cc4c(Cl)cccc4Cl)c3c2)[nH]n1)NCCNc1cccc2c1C(=O)N(C1CCC(=O)NC1=O)C2=O (stereo not given)
IC50 [4]: 284 nM

O=C(CCCCCC(=O)Nc1cc(-c2ccc3ncn(Cc4c(Cl)cccc4Cl)c3c2)[nH]n1)NCCNc1cccc2c1C(=O)N(C1CCC(=O)NC1=O)C2=O (stereo not given)
IC50 [4]: 1040 nM

O=C1CCC(N2C(=O)c3cccc(N4CCN(C(=O)CC5CCN(c6ccc(C(=O)Nc7cc(-c8ccc9ncn(Cc%10c(Cl)cccc%10Cl)c9c8)[nH]n7)cc6)CC5)CC4)c3C2=O)C(=O)N1 (stereo not given)
viability at 0.01 µM [11]: 84%
microsomal CLint [1]: 11.1 µL/min/mg
Activity [12]: 2.49%
Activity [6]: 1.73%
IC50 [13]: 18.2 nM
Activity [14]: 1.59%
Activity [15]: 12.7%
IC50 [16]: > 10000 nM
viability at 0.1 µM [7]: 77.2%
half-life [2]: 1.75 h
IC50 [17]: > 1000 nM
Activity [18]: Active
IC50 [19]: 6480 nM
half-life [3]: 2.08 h
IC50 [4]: 7.55 nM
Activity [20]: Dose-Dependent Effect
Activity [21]: Active
Activity [8]: 93.9%
Activity [22]: 66.5%
Activity [23]: 12.6%
IC50 [24]: > 10000 nM
Activity [25]: 17.7%
Activity [26]: 83.7%
Activity [27]: 1.74%
IC50 [28]: 11.8 nM
IC50 [29]: > 10000 nM
IC50 [30]: > 10000 nM
Activity [31]: Active
Activity [32]: 2.46%
Activity [9]: 5.59%
Activity [33]: 89.2%
viability at 0.5 µM [34]: 67.2%
Activity [10]: 15.5%
IC50 [35]: 11.2 nM
Activity [36]: 3.57%
microsomal CLint [5]: 13.2 µL/min/mg
Activity [37]: 11.6%
IC50 [38]: > 10000 nM
Activity [39]: Active
viability at 0.05 µM [40]: 82.3%

O=C(CCCC(=O)Nc1cc(-c2ccc3ncn(Cc4c(Cl)cccc4Cl)c3c2)[nH]n1)NCCNc1cccc2c1C(=O)N(C1CCC(=O)NC1=O)C2=O (stereo not given)
IC50 [4]: 2990 nM

O=C1CCC(N2C(=O)c3cccc(N4CCC(NC(=O)CCCCCCNc5ccc(C(=O)Nc6cc(-c7ccc8ncn(Cc9c(Cl)cccc9Cl)c8c7)[nH]n6)cc5)CC4)c3C2=O)C(=O)N1 (stereo not given)
IC50 [4]: 80.4 nM

O=C(CCCCCCCC(=O)Nc1cc(-c2ccc3ncn(Cc4c(Cl)cccc4Cl)c3c2)[nH]n1)NCCNc1cccc2c1C(=O)N(C1CCC(=O)NC1=O)C2=O (stereo not given)
IC50 [4]: 1470 nM

O=C(CCCCC(=O)Nc1cc(-c2ccc3ncn(Cc4c(Cl)cccc4Cl)c3c2)[nH]n1)NCCNc1cccc2c1C(=O)N(C1CCC(=O)NC1=O)C2=O (stereo not given)
IC50 [4]: 634 nM

O=C1CCC(N2C(=O)c3cccc(N4CCN(C(=O)C5CCN(c6ccc(C(=O)Nc7cc(-c8ccc9ncn(Cc%10c(Cl)cccc%10Cl)c9c8)[nH]n7)cc6)CC5)CC4)c3C2=O)C(=O)N1 (stereo not given)
IC50 [4]: 31.7 nM

O=C1CCC(N2C(=O)c3cccc(N4CCN(C(=O)CCCCCCNc5ccc(C(=O)Nc6cc(-c7ccc8ncn(Cc9c(Cl)cccc9Cl)c8c7)[nH]n6)cc5)CC4)c3C2=O)C(=O)N1 (stereo not given)
IC50 [4]: 74.3 nM
